Assays:
[1] = system: L/FEX-2 cells; assay: Inhibition of binding and phagocytosis of aged red blood cells by L/FEX-2 cells; format: cell-based, mouse; details: L/FEX-2 cells pre-cultured with 100 μM, 37° C., 30 minutes; relative to control group taken as 100%
Description: Whether or not aged red blood cells are bound and phagocytosed by the L/FEX-2 cells prepared in Example <1-2> and L/Mock cells as a control group was examined. For this purpose, normal red blood cells obtained from normal adult volunteers were first diluted with PBS to a hematocrit concentration of 20% and cultured at 37° C. for 4 days, thus preparing aged red blood cells. Then, each of L/FEX-2 cells, L/Mock cells and normal L cells was cultured to a confluent 6-well plate comprising Dulbecco's modified Eagle's medium (DMEM). To the culture media, aged red blood cells and normal red blood cells were added to a hematocrit concentration of 1% and cultured at 37° C. for one hour. Then, the cells were washed five times with PBS, and observed for the binding of the aged red blood cells and normal red blood cells using an optical microscope. The number of red blood cells bound to 100 randomly selected L/FEX-2 cells was counted and averaged. To analyze phagocytosis, the cells were washed with PBS and treated with water for 10 seconds to completely dissolve undigested cells. Then, the L/FEX-2 cells were stained using the Diff quick staining kit (IMEM Ins., San Marcos, Calif., USA), and five sites from the stained cells were randomly selected and counted for the number of cells which have phagocytosed red blood cells phagocytosed. Binding and phagocytosis indexes (%) were expressed as the percentages of cells having red blood cells bound and phagocytosed thereby, relative to the entire L/FEX-2 cells.
To the L/FEX-2 cells prepared in Example <1-2>, 100 μg/ml of the human FEX-2 monoclonal antibody (5G3) was added and the mixture was pre-cultured at 37° C. for one hour. As a control group, mouse immunoglobulin (IgG1) in place of the FEX-2 monoclonal antibody was used. […] After completion of the culture, the binding and phagocytosis of the aged red blood cells were analyzed in the same manner as in Example <4-1>. In this regard, the binding and phagocytosis of the aged red blood cells were expressed as inhibition percentage relative to the case of L/FEX-2 cells, which have not been pre-cultured with the antibody.
Whether the binding and phagocytosis of red blood cells by the L/FEX-2 cells are inhibited, it was examined by pre-culturing the L/FEX-2 cells with each of the PS liposome, PI liposome, PG liposome, PE liposome, PA liposome and PC liposome prepared in Example <5-3> and then additionally culturing the pre-cultured cells with aged red blood cells. […] After completion of the culture, the binding and phagocytosis of the aged red blood cells were analyzed in the same manner as in. […] The binding and phagocytosis of aged red blood cells were expressed as values relative to the control group taken as 100%. […]

[2] = system: premyelomonocytic leukemic U937 cells; assay: Induction of apoptosis in U937 cells (annexin V flow cytometry); format: cell-based, human; details: 100 ng/ml, 4 hours
Description: For this purpose, the apoptosis of human leukemic Jurkat T cells (Korean cell line bank) and premyelomonocytic leukemic U937 cells (Korean cell line bank) was induced. The cells were cultured in an RPMI 1640 medium comprising 10% fetal bovine serum. The induction of apoptosis of the Jurkat T cells was performed according to a known method by inoculating the Jurkat T cells in a medium comprising 100 ng/ml of an anti-Fas antibody (CH-11) and culturing the inoculated cells for 6 hours (Oka, K. et al., Proc Natl Acad Sci USA, 95:9535-40, 1998). Also, the induction of apoptosis of the U937 cells was performed according to a known method by inoculating the U937 cells in a medium comprising 100 ng/ml of ectoposide and culturing the inoculated cells for 4 hours (Bave, U., et. al., J Immunol 165:3519-26, 2000). The degree of apoptosis of the cells was determined by measuring the amount of phosphatidylserine expressed on the cell surface, by flow cytometry in the same manner as in Example <5-1> using the annexin V apoptosis detection kit (Santacruz) according to the manufacturer's instruction.

Row | SMILES | binding of aged red blood cells [1] | phagocytosis of aged red blood cells [1] | apoptosis of the cells (phosphatidylserine on cell surface, annexin V) [2]
1 | N[C@H](COP(=O)(O)O)C(=O)O [PDS, phospho-D-serine] | no significant effect | no significant effect | 
2 | N[C@@H](COP(=O)(O)O)C(=O)O [PLS, phospho-L-serine] | significant inhibition | significant inhibition | 
3 | COc1cc([C@@H]2c3cc4c(cc3[C@@H](O[C@@H]3O[C@@H]5CO[C@@H](C)O[C@H]5[C@H](O)[C@H]3O)[C@H]3COC(=O)[C@H]23)OCO4)cc(OC)c1O [ectoposide] |  |  | induced

Reference: US20090028871A1, “NOVEL USE OF LIGANDS SPECIFIC TO FEX-2 POLYPEPTIDE” (KYUNGPOOK NATIONAL UNIVERSITY INDUSTRY-ACADEMIC COOPERATION …, priority 2004, published 2009)
